Results as given in ChEMBL document CHEMBL3227947, “Quantitative structure-activity relationship of 5-(X-benzyl)-2,4-diaminopyrimidines inhibiting bovine liver dihydrofolate reductase” (J Med Chem, 1979).

Molecular target: T1, Dihydrofolate reductase (Bos taurus) (UniProt P00376)
T1 sequence (whole entry): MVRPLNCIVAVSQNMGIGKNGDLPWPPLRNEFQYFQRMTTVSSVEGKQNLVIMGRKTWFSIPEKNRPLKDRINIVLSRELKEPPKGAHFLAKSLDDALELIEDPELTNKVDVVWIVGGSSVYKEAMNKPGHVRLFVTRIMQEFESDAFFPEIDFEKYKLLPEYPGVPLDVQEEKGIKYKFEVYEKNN
Description: Inhibition of bovine liver dihydrofolate reductase using dihydrofolic acid as substrate

Structure (SMILES) | log(1/I50)
COc1cccc(Cc2cnc(N)nc2N)c1 | 5.02
Nc1ccc(Cc2cnc(N)nc2N)cc1 | 4.57
COc1ccc(Cc2cnc(N)nc2N)cc1OC | 5.15
Nc1ncc(Cc2ccc(OC(F)(F)F)cc2)c(N)n1 | 4.99

Next, values leading:

log(1/I50) | Structure (SMILES)
5.53 | Nc1ncc(Cc2cccc(C(F)(F)F)c2)c(N)n1
4.8 | Cc1ccc(Cc2cnc(N)nc2N)cc1
5.16 | CC(=O)Nc1ccc(Cc2cnc(N)nc2N)cc1[N+](=O)[O-]
